In US20120264231A1, “ASSAY FOR ORAI CALCIUM CHANNEL REGULATORS” (IMMUNE DISEASE INSTITUTE, INC., priority 2009, published 2012):

Assays:
[1] = Cameleon intravesicular Ca^2+ assay, control vesicles; assay type: biochemical, S cerevisiae; conditions: ionomycin 20 μM
Experimental: In complementary measurements, vesicular Ca^2+ was monitored directly by coexpressing ORAI1 with the Ca^2+ sensor D3 cpV or D4 cpV53 fused to the α-mating factor secretion signal to target the sensor to the vesicles. Vesicles that had incorporated ORAI1 were isolated from sec6-4 yeast incubated at the restrictive temperature and were diluted into assay buffer.
S cerevisiae strain NY17 featuring the temperature-sensitive sec6-4 mutation was used for protein expression and purification of secretory vesicles as described (Nakamoto, R. K., et al., J Biol Chem 266, 7940-7949 (1991); Coury, L. A., et al., Methods Enzymol 306, 169-186 (1999)). Cells were grown to midlog phase at 25° C. in uracil-deficient synthetic complete medium containing glucose, which was subsequently exchanged for galactose to induce transgene expression over a period of 8 hours. The temperature was then switched to 37° C. for 3 hours to force intracellular accumulation of secretory vesicles. […] Myc-tagged ORAI1 was detected in Western blots using the murine anti-Myc monoclonal antibody 9E10.
Changes in intravesicular [Ca^2+] were monitored with the modified Ca^2+ sensors cameleon D3 cpV and D4 cpV53. […] Emission spectra were recorded from 450-560 nm with excitation set at 410 nm, with a 5-8 nm slitwidth for both excitation and emission, and corrected by subtracting the spectrum obtained with buffer alone. […]

[2] = Pichia membrane flotation assay, control membranes; assay type: binding, Pichia pastoris; conditions: membranes from yeast not expressing ORAI1
Experimental: A membrane flotation assay was used to evaluate binding of these recombinant STIM 1 proteins to ORAI1. For these experiments ORAI1 (65-301) was expressed, an N-terminally truncated ORAI1 protein that forms functional Ca^2+ channels in mammalian cells (Li, Z., et al., J Biol Chem 282, 29448-29456 (2007)), in the yeast Pichia pastoris. Microsomal membranes were prepared from P pastoris expressing ORAI1 (65-301), layered at the bottom of a discontinuous sucrose gradient, and centrifuged. After centrifugation, the recombinant ORAI 1 was recovered near the top of the gradient in the fraction visually identified as containing membranes (FIG. 2A), as expected for an integral membrane protein.
Microsomal membranes, prepared from yeast Pichia pastoris expressing human ORAI1 (65-301) with an N-terminal FLAG tag and the substitutions E106Q and N223A, were resuspended in 10 mM HEPES pH 7.4, 150 mM NaCl, 1 mM DTT, 10% glycerol, briefly sonicated, brought to 25 mM EDTA by addition of EDTA from a concentrated stock, layered over a 0.5 M sucrose cushion, and centrifuged at 149,000×g for 1 h at 4° C. in a Beckman airfuge. […] FLAG-tagged ORAI1 was detected using anti-FLAG M2 monoclonal antibody (Sigma) and His-tagged STIM1^CT fragments were detected using anti-His-Tag monoclonal antibody (27E8 clone, Cell Signaling Technology).

## C[C@H](CCC(=O)O)C[C@H](C)C[C@H](C)C(=O)/C=C(\O)[C@H](C)C[C@H](C)C/C=C/[C@@H](C)[C@@H](O)[C@@H](C)[C@@H](O)C[C@@H]1CC[C@@](C)([C@H]2CC[C@@](C)([C@@H](C)O)O2)O1 [ionomycin, reference compound]
[1]
  Ca^2+ release from control vesicles (cameleon): effective in releasing Ca^2+

## STIM1^CT: cytoplasmic region of STIM1, mouse residues 233-685, His-tagged recombinant protein expressed in E coli
[2]
  position in gradient with control membranes: remained at the bottom of the gradient
